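Step 1: Grow cells in 96-well plates. Step 2: Expose to compound for 48 hours at 5 concentrations. Step 3: Interpolate endpoints linearly; if unreached, use highest concentration. At the TGI there is no net growth.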
Tests used:
Test in all cases: NCI tumour cell line growth inhibition, 48 h
[1] = system: 786-0 renal
[2] = system: A549 NSCLC
[3] = system: ACHN renal
[4] = system: BT-549 breast
[5] = system: CAKI-1 renal
[6] = system: CCRF-CEM leukemia
[7] = system: COLO 205 colon
[8] = system: DU-145 prostate
[9] = system: EKVX NSCLC
[10] = system: HCC-2998 colon
[11] = system: HCT-116 colon
[12] = system: HCT-15 colon
[13] = system: HOP-62 NSCLC
[14] = system: HOP-92 NSCLC
[15] = system: HS 578T breast
[16] = system: HT29 colon
[17] = system: IGROV1 ovarian
[18] = system: K-562 leukemia
[19] = system: KM12 colon
[20] = system: LOX IMVI melanoma
[21] = system: M14 melanoma
[22] = system: MALME-3M melanoma
[23] = system: MCF7 breast
[24] = system: MDA-MB-231 breast
[25] = system: MDA-MB-435
[26] = system: MDA-N
[27] = system: MOLT-4 leukemia
[28] = system: NCI-H226 lung
[29] = system: NCI-H23 lung
[30] = system: NCI-H460 lung
[31] = system: NCI-H522 lung
[32] = system: NCI/ADR-RES ovarian
[33] = system: OVCAR-3 ovarian
[34] = system: OVCAR-4 ovarian
[35] = system: OVCAR-5 ovarian
[36] = system: OVCAR-8 ovarian
[37] = system: PC-3 prostate
[38] = system: RPMI-8226 leukemia
[39] = system: RXF 393 renal
[40] = system: SF-268 CNS
[41] = system: SF-295 CNS
[42] = system: SF-539 CNS
[43] = system: SK-MEL-2 melanoma
[44] = system: SK-MEL-28 melanoma
[45] = system: SK-MEL-5 melanoma
[46] = system: SK-OV-3 ovarian
[47] = system: SN12C renal
[48] = system: SNB-19 CNS
[49] = system: SNB-75 CNS
[50] = system: SR leukemia
[51] = system: SW-620 colon
[52] = system: T-47D breast
[53] = system: TK-10 renal
[54] = system: U251 CNS
[55] = system: UACC-257 melanoma
[56] = system: UACC-62 melanoma
[57] = system: UO-31 renal
[58] = system: A498 renal
[59] = system: HL-60(TB) leukemia

CC(C)(C)OC(=O)c1ccc(NCC2=C(Br)C(=O)C=CC2=O)cc1
TGI [1]: 37.5 µM
TGI [2]: > 100 µM
TGI [3]: 33.6 µM
TGI [4]: 26.5 µM
TGI [5]: 26.8 µM
TGI [6]: > 24.9 µM
TGI [7]: 33.6 µM
TGI [8]: > 94.3 µM
TGI [9]: 53.9 µM
TGI [10]: 48 µM
TGI [11]: 35.2 µM
TGI [12]: 32 µM
TGI [13]: > 100 µM
TGI [14]: 28.4 µM
TGI [15]: 67.3 µM
TGI [16]: 33.9 µM
TGI [17]: > 66.9 µM
TGI [18]: > 58 µM
TGI [19]: > 100 µM
TGI [20]: 31.4 µM
TGI [21]: 85.4 µM
TGI [22]: 30.6 µM
TGI [23]: 48.4 µM
TGI [24]: 47 µM
TGI [25]: 41.3 µM
TGI [26]: 48.1 µM
TGI [27]: 45.7 µM
TGI [28]: > 90.1 µM
TGI [29]: 50.6 µM
TGI [30]: > 83.6 µM
TGI [31]: 13 µM
TGI [32]: 62.9 µM
TGI [33]: 27.7 µM
TGI [34]: 33 µM
TGI [35]: 56.1 µM
TGI [36]: 39.8 µM
TGI [37]: > 100 µM
TGI [38]: > 100 µM
TGI [39]: 37.5 µM
TGI [40]: > 67.8 µM
TGI [41]: > 100 µM
TGI [42]: 52.8 µM
TGI [43]: > 71.1 µM
TGI [44]: 41.2 µM
TGI [45]: 41.6 µM
TGI [46]: > 100 µM
TGI [47]: 44 µM
TGI [48]: > 100 µM
TGI [49]: > 83.3 µM
TGI [50]: 79.7 µM
TGI [51]: 34.9 µM
TGI [52]: 41.4 µM
TGI [53]: 48.2 µM
TGI [54]: > 66.6 µM
TGI [55]: 61.3 µM
TGI [56]: 36.1 µM
TGI [57]: 28.6 µM

CC1(C)Oc2ccc3c(=O)cc(-c4ccccc4)oc3c2C1C(=O)O (stereo not given)
TGI [1]: > 100 µM
TGI [58]: > 100 µM
TGI [2]: > 100 µM
TGI [4]: > 100 µM
TGI [5]: > 100 µM
TGI [6]: > 100 µM
TGI [7]: > 100 µM
TGI [8]: > 100 µM
TGI [9]: > 100 µM
TGI [10]: > 100 µM
TGI [11]: > 100 µM
TGI [12]: > 100 µM
TGI [59]: > 100 µM
TGI [13]: > 100 µM
TGI [15]: > 100 µM
TGI [16]: > 100 µM
TGI [17]: > 100 µM
TGI [18]: > 100 µM
TGI [21]: > 100 µM
TGI [22]: > 100 µM
TGI [23]: > 100 µM
TGI [24]: > 100 µM
TGI [25]: > 100 µM
TGI [26]: > 100 µM
TGI [27]: > 100 µM
TGI [28]: > 100 µM
TGI [29]: > 100 µM
TGI [31]: > 100 µM
TGI [32]: > 100 µM
TGI [33]: > 100 µM
TGI [34]: > 100 µM
TGI [35]: > 100 µM
TGI [36]: > 100 µM
TGI [37]: > 100 µM
TGI [39]: > 100 µM
TGI [40]: > 100 µM
TGI [41]: > 100 µM
TGI [42]: > 100 µM
TGI [43]: > 100 µM
TGI [45]: > 100 µM
TGI [46]: > 100 µM
TGI [47]: > 100 µM
TGI [50]: > 100 µM
TGI [52]: > 100 µM
TGI [53]: > 100 µM
TGI [54]: > 100 µM
TGI [55]: > 100 µM
TGI [56]: > 100 µM
